Laboratory results reported in article PMC8102404, “A key role for the transporter OAT1 in systemic lipid metabolism” (The Journal of Biological Chemistry, 2021).

Biological target: T1, Organic anion transporter 1 (hOAT1) (Homo sapiens, UniProt Q4U2R8)
T1 construct: gene SLC22A6
T1 sequence (Q4U2R8 1-563): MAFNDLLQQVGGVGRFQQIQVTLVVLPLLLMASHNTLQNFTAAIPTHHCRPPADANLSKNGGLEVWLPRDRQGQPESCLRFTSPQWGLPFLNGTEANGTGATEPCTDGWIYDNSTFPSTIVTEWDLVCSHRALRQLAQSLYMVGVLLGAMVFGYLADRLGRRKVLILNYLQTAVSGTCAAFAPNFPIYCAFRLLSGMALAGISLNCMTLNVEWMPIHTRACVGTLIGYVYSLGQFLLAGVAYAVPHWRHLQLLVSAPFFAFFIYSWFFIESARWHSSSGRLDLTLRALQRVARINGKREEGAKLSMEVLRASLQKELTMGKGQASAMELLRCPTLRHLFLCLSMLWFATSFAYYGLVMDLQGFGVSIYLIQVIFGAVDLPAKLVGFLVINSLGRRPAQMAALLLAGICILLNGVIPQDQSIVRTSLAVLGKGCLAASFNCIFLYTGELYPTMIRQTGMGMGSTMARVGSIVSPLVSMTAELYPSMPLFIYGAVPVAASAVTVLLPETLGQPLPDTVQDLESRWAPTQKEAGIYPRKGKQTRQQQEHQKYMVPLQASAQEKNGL
Assay: competitive inhibition of 6-carboxyfluorescein uptake in hOAT1-overexpressing HEK293 cells
Type: cell-based

IC50: 103 µM
Compound: CCCCCCCCCCCCCCC(=O)O [Pentadecanoic acid]
